Key:
[1] = tested on: phenyl-p-benzoquinone-induced writhing in mice; experiment: phenyl-p-benzoquinone-induced writhing test for analgesic activity; assay type: in vivo; details: mouse, dose ranging from about 1 to 30 mg/kg p.o.
Experimental: The phenyl-p-benzoquinone-induced writhing test for analgesic activity, described in J. Pharmacol. Exp. Therap. 125, 237 (1959) is performed in mice as follows:
Mice previously fasted overnight are treated orally with the test compound dissolved in 0.75% methylcellulose at doses of 1 to 50 mg/kg, or with the vehicle alone, 55 minutes before the induction of the writhing syndrome by i.p. injection of 0.25 ml of a suspension of phenyl-p-benzoquinone (0.03%) in tragacanth (0.4%).
Starting 5 minutes, thereafter, the number of writhing movements provoked by the irritant are counted over an observation period of 10 minutes. The analgesic antinociceptive) ED50 of the test compound is the dose which reduces the mean frequency of writhing movements by 50% in comparison to the controls.

[2] = tested on: BCG-immunized adjuvant arthritic rat; experiment: skin test (delayed hypersensitivity) in the BCG-immunized adjuvant arthritic rat; assay type: in vivo; details: 25 mg/kg/p.o.
Experimental: The enhancement of cell-mediated immunity is determined in vivo in the BCG-immunized arthritic rat by measurement of delayed hypersensitivity reaction essentially as described in Current Therapeutic Research 30, S34 (1981).
Charles River male rats weighing 325-400 g are sensitized by intradermal injection into the right hind foot pad with […] per animal of Mycobacterium tuberculosis (Difco) emulsified in Freund's incomplete adjuvant. Animals are immunized with 0.1 ml of BCG vaccine intradermally on day 18 after adjuvant injection. Corn starch suspensions of drugs are administered orally. Control animals are dosed with cornstarch vehicle only. All animals are skin-tested with 10 μg PPD intradermally on day 29 to elicit skin reactions. The diameter of the erythema and induration reaction is measured 24 hours after antigen challenge. An increase in the diameter of the erythema is indicative of enhanced cellular immunity.

[3] = tested on: proteoglycan matrix of bovine nasal septum cartilage; experiment: cartilage-synovium co-culture model of cartilage matrix degradation; assay type: cell-based; details: concentration range of about 10^-7 M to 10^-5 M
Experimental: The compounds of the invention are also active in the cartilage-synovium co-culture model of cartilage matrix degradation, indicative of their effectiveness in osteoarthritis. The screen is carried out as follows:
The proteoglycan matrix of bovine nasal septum cartilage is labeled into vitro by incorporation of ^35 S into glycosaminoglycan. Cartilage slices are incubated overnight in a sulfate-free medium containing ^35 S-sodium sulfate. ^35 S-Labeled cartilage slices are co-cultured with normal synovium explants in multiwell tissue culture plates. After 4 days incubation a 100 μl aliquot of medium is counted. Cartilage slices are hydrolyzed and a 100 μl aliquot of cartilage hydrolysate is counted. The percent ^35 S released into the medium is determined and the percent of inhibition of matrix degradation is calculated.

[4] = tested on: established adjuvant arthritis in the rat; experiment: established adjuvant arthritis test; assay type: in vivo; details: dose ranging from about 5 to 25 mg/kg/p.o.
Experimental: The established adjuvant arthritis test for anti-arthritic activity is performed essentially as described in Proc. Soc. Biol. Med. 137, 506 (1971).

For N#CC(C(=O)Nc1ccccc1)C(=O)c1ccc[nH]1 (stereo not drawn) [Example 1, β-oxo-α-(phenylcarbamoyl)-β-(2-pyrrolyl)-propionitrile], the “activity in the phenyl-p-benzoquinone test for analgesia” value [1] was “active”, the “activity in the skin test (immunopotentiating activity)” value [2] was “significant activity” and the “inhibition of cartilage matrix degradation in vitro” value (“inhibition” for short) [3] was “inhibit cartilage matrix degradation”. The “activity in the established adjuvant arthritis test” value [4] was “active”.
With N#CC(C(=O)Nc1ccc(Cl)cc1)C(=O)c1ccc[nH]1 (stereo not drawn) [Example 2, β-oxo-α-(4-chlorophenylcarbamoyl)-β-(2-pyrrolyl)propionitrile] the “activity in the phenyl-p-benzoquinone test for analgesia” value [1] was “active”, the “activity in the skin test (immunopotentiating activity)” value [2] was “significant activity” and the “inhibition” value [3] was “inhibit cartilage matrix degradation”. The “activity in the established adjuvant arthritis test” value [4] was “active”.
In the case of N#CC(C(=O)Nc1ccc(F)cc1F)C(=O)c1ccc[nH]1 (stereo not drawn) [Example 3, β-oxo-α-(2,4-difluorophenylcarbamoyl)-β-(2-pyrrolyl)-propionitrile], the “activity in the phenyl-p-benzoquinone test for analgesia” value [1] is reported as “active”, the “inhibition” value [3] is reported as “inhibit cartilage matrix degradation” and the “activity in the established adjuvant arthritis test” value [4] is reported as “active”.
N#CC(C(=O)Nc1ccc(F)cc1)C(=O)c1ccc[nH]1 (stereo not drawn) [Example 5, β-oxo-α-(4-fluorohenylcarbamoyl)-β-(2-pyrrolyl)-propionitrile] was tested, and the “activity in the phenyl-p-benzoquinone test for analgesia” value [1] was “active” and the “activity in the established adjuvant arthritis test” value [4] was “active”.

From patent publication US4644010A, “Certain β-oxo-α-carbamoylpyrrolepropionitriles” (Ciba-Geigy Corporation, priority 1984, dated 1987)
